Test results published in ChEMBL document CHEMBL1201862, “PubChem BioAssay data set” (2004).
Calls of active or inactive are those of the source.

Key:
[1] = A549 cell cytotoxicity, dose response, cytotoxicity control, plate reader, cherry-pick, antagonist series (AID 743412); assay type: functional, cell-based
[2] = target: T1, Kappa-type opioid receptor (Homo sapiens, UniProt P41145); assay type: functional
[3] = inhibitors of SNCA 5'UTR-driven reporter translation, confirmation, H4 neuroglioma cells, luminescence (AID 1988); assay type: functional, cell-based
[4] = LGR2 antagonists, dose response, cell-based, HEK293, CRE-luciferase reporter, cherry pick, set 2 (AID 743343); assay type: functional;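 also: transfected cells were stimulated with diluted bursicon conditioned medium after compound addition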
[5] = inhibitors of intracellular T. cruzi replication, confirmation, NIH3T3 host cells, beta-gal luminescence (AID 2044); assay type: functional, cell-based;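 also: intracellular parasites grown in NIH/3T3 mouse fibroblasts as host cells; luminescent beta-galactosidase reporter signal from transgenic T. cruzi replicating inside host cells; inhibitors lower the luminescence signal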
[6] = inhibitors of firefly luciferase expression or activity, dose response, H4 neuroglioma cells, luminescence (AID 1990); assay type: functional, cell-based
[7] = HEK293 cell cytotoxicity, dose response, cytotoxicity control, plate reader, cherry-picked samples (AID 743446); assay type: functional, cell-based
[8] = HepG2 cell cytotoxicity, dose response, cytotoxicity control, plate reader, cherry-pick, antagonist series (AID 743416); assay type: functional, cell-based
[9] = Luminescence Cell-Based Dose Response HTS to Identify Inhibitors of 5'UTR Stem-Loop Driven Prion Protein mRNA Translation in H4 Neuroglioblastoma Cells. [Related pubchem assays: 1827 (Project Summary), 1813 (Primary HTS)]; assay type: functional
[10] = target: T2, Sphingosine 1-phosphate receptor 1 (Homo sapiens, UniProt P21453); assay type: functional
T2 sequence (P21453 whole entry): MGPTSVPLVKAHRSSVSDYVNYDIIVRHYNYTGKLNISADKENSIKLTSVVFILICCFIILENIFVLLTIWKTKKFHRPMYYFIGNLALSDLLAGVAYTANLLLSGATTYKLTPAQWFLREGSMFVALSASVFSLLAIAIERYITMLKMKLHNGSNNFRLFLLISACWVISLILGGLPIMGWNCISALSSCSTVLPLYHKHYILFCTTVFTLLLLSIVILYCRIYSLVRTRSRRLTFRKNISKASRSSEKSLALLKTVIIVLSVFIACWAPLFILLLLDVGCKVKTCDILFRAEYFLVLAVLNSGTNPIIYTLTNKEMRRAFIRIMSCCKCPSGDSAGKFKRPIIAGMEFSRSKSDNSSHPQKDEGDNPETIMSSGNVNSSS

A-375 [11] = assay: A375 melanoma cell viability reduction, dose response, counter-screen for MITF modulator project, cherry-pick samples, set 2 (AID 540335); assay type: functional, cell-based; conditions: Homo sapiens
A-375 [12] = assay: MITF: Counter assay: A375 proliferation Measured in Cell-Based System Using Plate Reader - 2084-03_Inhibitor_Dose_DryPowder_Activity. [Related pubchem assays (depositor defined):AID488944]; assay type: functional; conditions: Homo sapiens
[13] = target: T3, Delta-type opioid receptor (Homo sapiens, UniProt P41143); assay: HTS Image-Based Screen for Antagonists of the DOR Receptor. [Related pubchem assays (depositor defined):AID1777, AID1785, AID1786, AID2133]; assay type: functional
T3 sequence (P41143 whole entry): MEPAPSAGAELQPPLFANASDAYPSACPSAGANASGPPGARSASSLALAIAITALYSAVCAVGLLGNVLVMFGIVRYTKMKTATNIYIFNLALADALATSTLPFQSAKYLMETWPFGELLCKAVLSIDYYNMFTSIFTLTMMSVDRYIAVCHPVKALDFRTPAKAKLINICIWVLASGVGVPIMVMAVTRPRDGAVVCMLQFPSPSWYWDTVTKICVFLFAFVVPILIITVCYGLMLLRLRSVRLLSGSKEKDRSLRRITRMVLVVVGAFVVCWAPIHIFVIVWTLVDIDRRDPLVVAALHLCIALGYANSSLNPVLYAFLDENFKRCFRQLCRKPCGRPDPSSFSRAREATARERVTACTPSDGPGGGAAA

Mu-type opioid receptor [14] = target: T4, Mu-type opioid receptor (Homo sapiens, UniProt P35372); assay: HTS Image-Based Screen for Agonists of the MOR Receptor. [Related pubchem assays (depositor defined):AID1777, AID1785, AID1786, AID2133]; assay type: functional
T4 sequence (P35372 whole entry): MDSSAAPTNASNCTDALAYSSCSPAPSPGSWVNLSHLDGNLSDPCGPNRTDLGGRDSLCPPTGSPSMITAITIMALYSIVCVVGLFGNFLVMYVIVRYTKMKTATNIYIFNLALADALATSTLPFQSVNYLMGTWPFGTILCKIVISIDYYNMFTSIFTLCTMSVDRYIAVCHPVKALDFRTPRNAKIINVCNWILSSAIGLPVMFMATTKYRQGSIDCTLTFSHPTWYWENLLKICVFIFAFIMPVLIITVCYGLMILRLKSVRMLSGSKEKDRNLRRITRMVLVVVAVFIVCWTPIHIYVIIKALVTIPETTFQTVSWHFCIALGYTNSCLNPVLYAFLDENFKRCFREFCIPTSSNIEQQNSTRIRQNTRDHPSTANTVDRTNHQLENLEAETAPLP

Beta-galactosidase = Beta-galactosidase (Escherichia coli, UniProt Q8VNN2); assay type: functional
Beta-galactosidase, sequence (Q8VNN2 whole entry): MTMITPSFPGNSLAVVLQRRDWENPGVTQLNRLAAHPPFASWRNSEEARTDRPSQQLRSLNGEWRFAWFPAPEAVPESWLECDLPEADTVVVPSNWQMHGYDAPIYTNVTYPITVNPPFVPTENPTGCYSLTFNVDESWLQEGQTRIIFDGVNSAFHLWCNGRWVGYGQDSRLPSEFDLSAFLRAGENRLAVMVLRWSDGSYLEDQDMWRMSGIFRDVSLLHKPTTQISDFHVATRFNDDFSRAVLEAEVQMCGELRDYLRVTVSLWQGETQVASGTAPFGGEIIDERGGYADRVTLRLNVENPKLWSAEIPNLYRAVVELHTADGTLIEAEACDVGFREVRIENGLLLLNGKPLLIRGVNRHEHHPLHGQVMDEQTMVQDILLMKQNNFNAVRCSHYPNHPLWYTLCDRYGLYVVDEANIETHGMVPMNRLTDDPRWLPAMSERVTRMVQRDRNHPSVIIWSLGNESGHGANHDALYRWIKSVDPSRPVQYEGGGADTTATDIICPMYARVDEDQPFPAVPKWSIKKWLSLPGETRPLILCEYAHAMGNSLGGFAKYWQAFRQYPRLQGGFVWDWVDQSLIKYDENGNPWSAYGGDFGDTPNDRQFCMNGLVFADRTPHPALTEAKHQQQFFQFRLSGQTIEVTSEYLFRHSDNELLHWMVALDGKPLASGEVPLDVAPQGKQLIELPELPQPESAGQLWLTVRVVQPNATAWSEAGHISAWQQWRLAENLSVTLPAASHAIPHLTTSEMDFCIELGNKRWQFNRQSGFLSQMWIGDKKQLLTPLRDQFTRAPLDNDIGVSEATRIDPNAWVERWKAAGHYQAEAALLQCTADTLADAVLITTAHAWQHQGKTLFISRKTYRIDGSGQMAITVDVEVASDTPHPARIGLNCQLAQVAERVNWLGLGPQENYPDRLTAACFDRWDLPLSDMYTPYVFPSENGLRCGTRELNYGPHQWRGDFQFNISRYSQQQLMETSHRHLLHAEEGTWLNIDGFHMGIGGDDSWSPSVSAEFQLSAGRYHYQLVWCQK

[15] = target: T1, Kappa-type opioid receptor; assay type: functional; remark: listed apart in the source
[16] = target: T5, Microphthalmia-associated transcription factor (Homo sapiens, UniProt O75030); assay: TRPM1 promoter luciferase signal decrease, dose response, MITF inhibitor project, cell-based, SK-MEL-5, cherry-picked, set 3 (AID 493073); assay type: functional
T5 sequence (O75030 whole entry): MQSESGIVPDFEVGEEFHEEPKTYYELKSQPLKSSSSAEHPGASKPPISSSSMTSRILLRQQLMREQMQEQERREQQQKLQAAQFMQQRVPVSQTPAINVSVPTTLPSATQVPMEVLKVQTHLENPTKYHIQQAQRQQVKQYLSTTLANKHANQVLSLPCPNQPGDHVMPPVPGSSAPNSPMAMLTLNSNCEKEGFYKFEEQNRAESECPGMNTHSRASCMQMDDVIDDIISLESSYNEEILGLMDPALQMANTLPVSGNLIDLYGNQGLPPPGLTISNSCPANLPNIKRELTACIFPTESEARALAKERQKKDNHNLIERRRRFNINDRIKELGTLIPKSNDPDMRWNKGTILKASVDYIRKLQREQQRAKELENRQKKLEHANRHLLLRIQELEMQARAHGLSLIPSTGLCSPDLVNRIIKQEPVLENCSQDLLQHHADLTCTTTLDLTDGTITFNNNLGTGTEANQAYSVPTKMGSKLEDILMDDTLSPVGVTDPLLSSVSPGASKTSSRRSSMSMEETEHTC

[17] = MC4R antagonists, dose response, counter-screen for LGR2 antagonist project, cell-based, plate reader, cherry pick (AID 743444); assay type: functional;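 also: transfected HEK 293 cells stimulated with alpha-MSH peptide; potency of inhibitors of the alpha-MSH evoked signal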
[18] = cytotoxicity toward NIH3T3 fibroblasts, dose response, counter-screen, cell-based, ATP luminescence, mouse fibroblasts (AID 2010); assay type: functional;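 also: cells exposed to compound for about 90 hours before reading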
[19] = target: T3, Delta-type opioid receptor; assay: HTS Image-Based Screen for Agonists of the DOR Receptor. [Related pubchem assays (depositor defined):AID1777, AID1786, AID2133]; assay type: functional
[20] = target: T6, Sphingosine 1-phosphate receptor 4 (Homo sapiens, UniProt O95977); assay: Fluorescence dose response cell-based high throughput screening assay for antagonists of the Sphingosine 1-Phosphate Receptor 4 (S1P4). [Related pubchem assays: 1524 (Confirmation in triplicates.), 1510 (Primary screen.)]; assay type: functional
T6 sequence (O95977 whole entry): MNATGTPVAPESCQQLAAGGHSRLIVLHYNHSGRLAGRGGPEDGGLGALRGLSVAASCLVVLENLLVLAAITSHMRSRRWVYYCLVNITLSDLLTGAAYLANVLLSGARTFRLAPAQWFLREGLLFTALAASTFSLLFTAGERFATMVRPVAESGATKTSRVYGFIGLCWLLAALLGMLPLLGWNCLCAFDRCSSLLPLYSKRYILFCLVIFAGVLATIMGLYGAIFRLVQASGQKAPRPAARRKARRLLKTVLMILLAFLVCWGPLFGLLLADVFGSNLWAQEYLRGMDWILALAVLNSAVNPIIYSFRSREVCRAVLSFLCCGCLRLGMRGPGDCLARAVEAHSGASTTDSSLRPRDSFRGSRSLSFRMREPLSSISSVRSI

[21] = target: T6, Sphingosine 1-phosphate receptor 4; assay: S1P4 receptor antagonists, human, late-stage follow-up, cell-based, fluorescence, synthesized analogues (AID 2346); assay type: functional
[22] = target: T2, Sphingosine 1-phosphate receptor 1; assay: Late stage counterscreen assay for S1P4 antagonists: Fluorescence dose response cell-based screening assay for antagonists of the Sphingosine 1-Phosphate Receptor 1 (S1P1). [Related pubchem assays (depositor defined):AID1510, AID1524, AID1692, AID1853, AID2332, AID489009, AID489017]; assay type: functional
[23] = target: Sphingosine 1-phosphate receptor 3 (Homo sapiens, UniProt Q99500); assay: Late stage counterscreen assay for S1P4 antagonists: Fluorescence dose response cell-based screening assay for antagonists of the Sphingosine 1-Phosphate Receptor 3 (S1P3). [Related pubchem assays (depositor defined):AID1510, AID1524, AID1692, AID1853, AID2332, AID489009, AID489017]; assay type: functional
Sphingosine 1-phosphate receptor 3, sequence (Q99500 whole entry): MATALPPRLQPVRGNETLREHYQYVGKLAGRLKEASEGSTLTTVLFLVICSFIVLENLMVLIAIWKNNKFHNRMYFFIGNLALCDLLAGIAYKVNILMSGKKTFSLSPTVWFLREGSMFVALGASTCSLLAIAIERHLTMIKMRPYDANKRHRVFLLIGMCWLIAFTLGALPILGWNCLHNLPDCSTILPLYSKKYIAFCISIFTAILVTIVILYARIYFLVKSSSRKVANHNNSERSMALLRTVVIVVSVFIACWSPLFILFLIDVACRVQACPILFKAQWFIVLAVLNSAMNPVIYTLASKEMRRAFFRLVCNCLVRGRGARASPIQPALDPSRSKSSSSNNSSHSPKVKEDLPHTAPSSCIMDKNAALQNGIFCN

[24] = target: Sphingosine 1-phosphate receptor 2 (Homo sapiens, UniProt O95136); assay: Late stage counterscreen assay for S1P4 antagonists: Fluorescence dose response cell-based screening assay for antagonists of the Sphingosine 1-Phosphate Receptor 2 (S1P2). [Related pubchem assays (depositor defined):AID1510, AID1524, AID1692, AID1853, AID2332, AID489009, AID489017]; assay type: functional
Sphingosine 1-phosphate receptor 2, sequence (O95136 whole entry): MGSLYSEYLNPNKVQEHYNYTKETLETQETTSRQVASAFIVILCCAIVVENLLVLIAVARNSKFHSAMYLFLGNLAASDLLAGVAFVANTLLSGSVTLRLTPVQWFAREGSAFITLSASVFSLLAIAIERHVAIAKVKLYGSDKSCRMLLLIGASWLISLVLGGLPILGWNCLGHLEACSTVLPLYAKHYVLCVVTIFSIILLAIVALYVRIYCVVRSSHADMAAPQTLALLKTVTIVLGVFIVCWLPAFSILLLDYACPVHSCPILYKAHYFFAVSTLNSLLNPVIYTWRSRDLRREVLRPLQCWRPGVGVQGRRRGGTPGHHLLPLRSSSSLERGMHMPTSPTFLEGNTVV

[25] = target: Sphingosine 1-phosphate receptor 5 (Homo sapiens, UniProt Q9H228); assay: Late stage counterscreen assay for S1P4 antagonists: Fluorescence dose response cell-based screening assay for antagonists of the Sphingosine 1-Phosphate Receptor 5 (S1P5). [Related pubchem assays (depositor defined):AID1510, AID1524, AID1692, AID1853, AID2332, AID489009, AID489017]; assay type: functional
Sphingosine 1-phosphate receptor 5, sequence (Q9H228 whole entry): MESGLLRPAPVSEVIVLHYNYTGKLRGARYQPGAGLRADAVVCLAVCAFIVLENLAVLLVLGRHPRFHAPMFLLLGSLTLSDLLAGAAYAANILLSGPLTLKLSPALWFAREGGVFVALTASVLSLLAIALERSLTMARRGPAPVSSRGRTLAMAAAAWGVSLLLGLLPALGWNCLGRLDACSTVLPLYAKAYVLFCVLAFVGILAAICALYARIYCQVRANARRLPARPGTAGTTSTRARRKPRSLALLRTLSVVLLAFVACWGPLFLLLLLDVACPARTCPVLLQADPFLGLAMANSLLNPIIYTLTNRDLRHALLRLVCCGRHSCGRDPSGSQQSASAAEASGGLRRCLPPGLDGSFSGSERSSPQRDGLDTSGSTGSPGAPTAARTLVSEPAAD

[26] = target: T3, Delta-type opioid receptor; assay: SAR Analysis of Antagonists of the DOR Receptor using an Image-Based Assay - Set 2. [Related pubchem assays (depositor defined):AID1777, AID1785, AID1786, AID1966, AID2133, AID2136, AID2284, AID2285, AID2357]; assay type: functional
Mu-type opioid receptor [27] = target: T4, Mu-type opioid receptor; assay: SAR Analysis of Agonists of the MOR Receptor using an Image-Based Assay - Set 2. [Related pubchem assays (depositor defined):AID1777, AID1785, AID1786, AID1966, AID2133, AID2136, AID2284, AID2285, AID2352]; assay type: functional
[28] = target: T1, Kappa-type opioid receptor; assay: KOR agonist analogs, arrestin-GFP redistribution, SAR follow-up, imaging, image-based, set 3 (AID 488833); assay type: functional
[29] = target: T3, Delta-type opioid receptor; assay: SAR Analysis of Agonists of the DOR Receptor using an Image-Based Assay - Set 2. [Related pubchem assays (depositor defined):AID1777, AID1785, AID1786, AID1966, AID2133, AID2136, AID2284, AID2285, AID2370]; assay type: functional
[30] = target: T1, Kappa-type opioid receptor; assay: SAR analysis of small molecule agonists of the kappa opioid receptor via a luminescent beta-arrestin assay - Set 3. [Related pubchem assays (depositor defined):AID1777, AID1785, AID1786, AID1966, AID2133, AID2136, AID2284, AID2500]; assay type: functional
Mu-type opioid receptor [31] = target: T4, Mu-type opioid receptor; assay: SAR Analysis of Agonists of the MOR Receptor using an Image-Based Assay - Set 3. [Related pubchem assays (depositor defined):AID1777, AID1785, AID1786, AID1966, AID2133, AID2136, AID2284, AID2285, AID2352]; assay type: functional
Mu-type opioid receptor [32] = target: T4, Mu-type opioid receptor; assay: SAR Analysis of Antagonists of the MOR Receptor using an Image-Based Assay - Set 2. [Related pubchem assays (depositor defined):AID1777, AID1785, AID1786, AID1966, AID2133, AID2136, AID2284, AID2285, AID2420]; assay type: functional
[33] = target: T1, Kappa-type opioid receptor; assay: SAR analysis of Antagonists of the Kappa Opioid Receptor (KOR) using an Image-Based Assay - Set 2. [Related pubchem assays (depositor defined):AID1777, AID1785, AID1786, AID1966, AID2133, AID2136, AID2284, AID2285, AID2348]; assay type: functional
[34] = target: T3, Delta-type opioid receptor; assay: SAR Analysis of Agonists of the DOR Receptor using an Image-Based Assay - Set 3. [Related pubchem assays (depositor defined):AID1777, AID1786]; assay type: functional
[35] = target: Nuclear receptor ROR-gamma (Homo sapiens, UniProt P51449); assay: ROR modulator nuclear receptor reporter panel, late-stage follow-up, ROR modulator project, cell-based, luciferase reporter, panel member RORG (AID 2117)
Nuclear receptor ROR-gamma, sequence (P51449 whole entry): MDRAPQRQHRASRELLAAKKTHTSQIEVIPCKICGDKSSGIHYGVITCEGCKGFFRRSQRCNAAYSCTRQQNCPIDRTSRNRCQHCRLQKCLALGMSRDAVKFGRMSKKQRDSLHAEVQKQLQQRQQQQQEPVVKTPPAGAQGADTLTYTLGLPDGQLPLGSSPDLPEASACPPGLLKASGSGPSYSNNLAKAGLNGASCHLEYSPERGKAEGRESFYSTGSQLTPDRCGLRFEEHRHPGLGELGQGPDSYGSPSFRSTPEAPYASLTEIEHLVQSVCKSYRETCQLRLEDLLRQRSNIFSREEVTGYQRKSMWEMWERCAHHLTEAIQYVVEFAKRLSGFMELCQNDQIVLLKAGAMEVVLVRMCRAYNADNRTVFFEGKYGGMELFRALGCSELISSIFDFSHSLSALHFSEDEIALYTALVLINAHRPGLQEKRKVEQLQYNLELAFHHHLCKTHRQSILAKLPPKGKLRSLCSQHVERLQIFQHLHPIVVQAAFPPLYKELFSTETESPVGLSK

[36] = target: Nuclear receptor ROR-alpha (Homo sapiens, UniProt P35398); assay: ROR modulator nuclear receptor reporter panel, late-stage follow-up, ROR modulator project, cell-based, luciferase reporter, panel member RORA (AID 2117)
Nuclear receptor ROR-alpha, sequence (P35398 whole entry): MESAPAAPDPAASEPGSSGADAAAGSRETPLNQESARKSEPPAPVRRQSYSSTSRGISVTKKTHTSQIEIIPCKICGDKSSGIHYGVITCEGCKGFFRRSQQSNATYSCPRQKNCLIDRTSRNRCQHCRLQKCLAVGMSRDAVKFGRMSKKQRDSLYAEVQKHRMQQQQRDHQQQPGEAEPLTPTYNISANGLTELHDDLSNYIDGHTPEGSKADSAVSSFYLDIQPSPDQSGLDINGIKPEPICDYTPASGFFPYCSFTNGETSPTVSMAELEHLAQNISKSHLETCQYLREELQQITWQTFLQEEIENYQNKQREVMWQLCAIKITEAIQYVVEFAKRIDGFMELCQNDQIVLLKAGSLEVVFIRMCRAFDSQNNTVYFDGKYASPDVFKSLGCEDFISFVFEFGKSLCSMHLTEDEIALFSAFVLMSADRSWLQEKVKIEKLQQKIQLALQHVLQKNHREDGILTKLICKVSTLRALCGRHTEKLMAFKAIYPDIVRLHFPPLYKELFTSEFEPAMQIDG

[37] = Counterscreen for AddAB inhibitors: absorbance-based bacterial cell-based high throughput dose response assay for inhibitors of bacterial viability. [Related pubchem assays (depositor defined):AID435030, AID449728, AID449731, AID488942, AID488955, AID488956]; assay type: functional
[38] = target: G-protein coupled receptor 55 (Homo sapiens, UniProt Q9Y2T6); assay: GPR55 antagonists blocking LPI-driven arrestin recruitment, primary screen, imaging, U2OS, beta-arrestin-GFP, LPI agonist (AID 2013); assay type: functional;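 also: antagonist potency measured as reduced agonist-driven arrestin aggregation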
Exodeoxyribonuclease V = Exodeoxyribonuclease V (Escherichia coli (strain K12), UniProt P04993+P07648+P08394); assay: E. coli RecBCD inhibitors, dose response, counter-screen for AddAB inhibitor project, absorbance, V66 E. coli, mutant T4 phage (AID 492957); assay type: functional, cell-based, Escherichia coli str. K-12 substr. MG1655

T1 sequence (P41145 whole entry): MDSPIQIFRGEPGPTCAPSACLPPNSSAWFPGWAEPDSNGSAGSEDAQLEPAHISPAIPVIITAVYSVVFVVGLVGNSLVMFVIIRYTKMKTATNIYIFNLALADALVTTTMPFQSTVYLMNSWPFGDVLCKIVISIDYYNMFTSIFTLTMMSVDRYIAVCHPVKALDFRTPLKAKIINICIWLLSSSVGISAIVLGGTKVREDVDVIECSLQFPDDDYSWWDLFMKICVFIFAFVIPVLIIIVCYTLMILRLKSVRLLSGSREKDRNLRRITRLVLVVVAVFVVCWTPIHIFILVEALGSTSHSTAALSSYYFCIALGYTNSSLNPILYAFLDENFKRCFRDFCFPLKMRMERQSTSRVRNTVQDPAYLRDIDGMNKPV

SMILES: O=C(Cn1ncc(Cl)c(Cl)c1=O)N1CCc2ccccc21
- AC50 [1]: 7.68 µM (active)
- IC50 [2]: 5.51 µM (active)
- EC50 [3]: > 120 µM (not active)
- AC50 [4]: 7.11 µM (active)
- EC50 [5]: 2.46 µM (active)
- EC50 [6]: 8.12 µM (active)
- AC50 [7]: 4.3 µM (active)
- AC50 [8]: 16.3 µM (active)
- EC50 [9]: 7.57 µM (active)
- IC50 [10]: 5.51 µM (active)
- AC50 (A-375 [11]): > 35 µM (active)
- AC50 (A-375 [12]): > 35 µM (active)
- IC50 [13]: 14.7 µM (inactive)
- EC50 (Mu-type opioid receptor [14]): > 32 µM (inactive)
- EC50 (Beta-galactosidase): > 31.5 µM (inactive)
- IC50 [15]: 2.85 µM
- AC50 [16]: 6.1 µM (active)
- AC50 [17]: 8.77 µM (active)
- EC50 [18]: 4.51 µM (active)
- EC50 [19]: > 32 µM (inactive)
- IC50 [20]: 1.64 µM (active)

SMILES: Cc1ccc(NC(=O)c2ccc(-c3cc(Cl)ccc3Cl)o2)c(C)c1
- IC50 [21]: 0.182 µM (active)
- IC50 [22]: > 25 µM (inactive)
- IC50 [23]: > 25 µM (inactive)
- IC50 [24]: > 25 µM (inactive)
- IC50 [25]: > 25 µM (inactive)

SMILES: Clc1ccc(CSc2nnc(-c3ccccn3)n2Cc2cccs2)cc1Cl
- IC50 [26]: > 32 µM (inactive)
- EC50 (Mu-type opioid receptor [27]): > 32 µM (inactive)
- EC50 [28]: 0.349 µM (active)
- EC50 [29]: > 32 µM (inactive)
- EC50 [30]: 0.454 µM (active)
- EC50 (Mu-type opioid receptor [31]): > 32 µM (inactive)
- IC50 (Mu-type opioid receptor [32]): > 32 µM (inactive)
- IC50 [33]: > 32 µM (inactive)
- EC50 [34]: > 64 µM (inactive)

SMILES: CC(C)(C)c1ccc(S(=O)(=O)Nc2ccc(C(O)(C(F)(F)F)C(F)(F)F)cc2)cc1
- IC50 [35]: > 20 µM (inactive)
- IC50 [36]: 2.47 µM (active)

SMILES: O=[N+]([O-])c1c(O)oc2ccccc2/c1=N\C(c1ccccc1)c1ccccc1
- IC50 [37]: > 119 µM (inactive)
- IC50 [38]: 2.79 µM (active)
- IC50 (Exodeoxyribonuclease V): > 119 µM (inactive)
